Where two headings read alike, the source gives them in different places.
Assays:
[1] = Zeta-potential measurement; assay type: physicochemical; settings: for Zeta-pot. / mV: zeta potential of peptide, Fig S15 source data; for Zeta pot. / mV: 1 mg/mL in PBS pH 7.4 from 10 mg/mL DMSO stock, 1 d RT, 60 µL diluted in 600 µL 1 mM KCl, Zetasizer Nano ZS, Smoluchowski, mean of triplicate
In short: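 PBS pH 7.4, 1 mg/mL peptide (DMSO stock), 1 d RT aggregation; diluted in 1 mM KCl pre-read; mobility → zeta (Smoluchowski); n = 3, 2 expts averaged.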

[2] = Turbidity, derived count rate of scattered light; assay type: physicochemical; settings: log10 of derived count rate of scattered light, Figure 7B
[3] = tested on: TZM-bl cells; assay type: cell-based; settings: CellTiter-Glo, mean of n = 3 replicates
In short: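 CellTiter-Glo luminescence, normalized to 100% metabolic activity, gave cytotoxicity readout for TZM-bl cells exposed to peptide serial dilutions for 3 days; 10,000 cells seeded, triplicate measurements.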

Substance | Zeta category ( +1 = if > 4 mV;-1 = if < -4 mV; 0 = -4mV to 4 mV) [1] | Zeta Pot. / mV ([1]; mean, Std in separate column) | Zeta-pot. / mV [1] | Zeta pot. / mV [1] | also measured
KIKIQIW [TM69] | 1 (+1 = if > 4 mV) | 12.5 mV | 12.5 mV | – | Zeta Pot. / mV [1]: 12.5 mV
KIKIQIAMWQ [JR4] | – | – | 11.3 mV | – | Zeta category ( +1 = if > 4 mV;-1 = if < -4 mV; 0 = -4mV to 4 mV) ([1]; FigS26): 1 (+1 = if > 4 mV)
IIIK [reference compound] | – | – | – | -3.8 mV | Zeta-Potential / mV ([1]; mean, Figure 7B): -3.82 mV; Log10 Count Rate [2]: 1.413
KIKIQINMWWQ [VH11] | 1 (+1 = if > 4 mV) | 11.8 mV | 11.8 mV | – | –
VHDCVNITIK [reference compound] | – | – | – | – | Zeta-Potential / mV ([1]; mean, Figure 7B): 9.27 mV; Log10 Count Rate [2]: 4.098
CRLSLSLS | – | – | – | 8.977 mV | Zeta-Potential / mV ([1]; mean, Figure 6C): 8.977 mV
KIKIQIMQWN [VH16] | – | – | 9.44 mV | – | Zeta category ( +1 = if > 4 mV;-1 = if < -4 mV; 0 = -4mV to 4 mV) ([1]; FigS26): 1 (+1 = if > 4 mV)
CKIWIQIY | – | – | – | – | Zeta-Potential / mV ([1]; mean, Figure 6C): 4.537 mV
KFKQFFINMWQ [VH14] | 1 (+1 = if > 4 mV) | – | 7.99 mV | – | Zeta Pot. / mV [1]: 7.99 mV
KIKIKIKIWWWW [TM12] | 1 (+1 = if > 4 mV) | 15.2 mV | 15.2 mV | – | viability 0.26 µM ([3]; peptide 0.26 µM): 125.9; viability 1.3 µM ([3]; peptide 1.3 µM): 106.4; viability 6.5 µM ([3]; peptide 6.5 µM): 86.48
KFKFQFF [TG6] | 0 (0 = -4mV to 4 mV) | – | 6.903 mV | – | –
KVKVQVV [TG2] | -1 (-1 = if < -4 mV) | -7.92 mV | -7.92 mV | – | Zeta Pot. / mV [1]: -7.92 mV
KIKIQIMWNQ [VH15] | – | – | 2.96 mV | – | Zeta category ( +1 = if > 4 mV;-1 = if < -4 mV; 0 = -4mV to 4 mV) ([1]; FigS26): 0 (0 = -4mV to 4 mV)
KLVFFAK [reference compound] | – | – | – | 3.2 mV | Zeta-Potential / mV ([1]; mean, Figure 7B): 3.23 mV; Log10 Count Rate [2]: 1.159
RIRFHIW | – | – | – | 0.107 mV | Zeta-Potential / mV ([1]; mean, Figure 6C): 0.107 mV
NMWQKIKIQI [JG9] | – | – | 8.26 mV | – | Zeta category ( +1 = if > 4 mV;-1 = if < -4 mV; 0 = -4mV to 4 mV) ([1]; FigS26): 1 (+1 = if > 4 mV)
MKVIFLKDVKG [reference compound] | – | – | – | 9.6 mV | Zeta-Potential / mV ([1]; mean, Figure 7B): 9.62 mV; Log10 Count Rate [2]: 2.137

Substance | Zeta category ( +1 = if > 4 mV;-1 = if < -4 mV; 0 = -4mV to 4 mV) [1] | Zeta Pot. / mV ([1]; mean, Std in separate column) | Zeta-pot. / mV [1] | Zeta pot. / mV [1] | also measured
KIKIQIRGD [MG6] | – | – | 6.43 mV | – | Zeta category ( +1 = if > 4 mV;-1 = if < -4 mV; 0 = -4mV to 4 mV) ([1]; FigS26): 1 (+1 = if > 4 mV)
KFKFQFN [BL7] | 1 (+1 = if > 4 mV) | 12.7 mV | 12.7 mV | – | –
KAKQAANMWQ [JG6] | -1 (-1 = if < -4 mV) | – | -12.9 mV | – | Zeta Pot. / mV [1]: -12.9 mV
KVKVQVVV [TG8] | 0 (0 = -4mV to 4 mV) | 0.147 mV | 0.147 mV | – | Zeta Pot. / mV [1]: 0.147 mV
NMWQKIKQII [JG8] | – | – | -0.213 mV | – | Zeta category ( +1 = if > 4 mV;-1 = if < -4 mV; 0 = -4mV to 4 mV) ([1]; FigS26): 0 (0 = -4mV to 4 mV)
KFQFNMW | – | – | – | – | Zeta-Potential / mV ([1]; mean, Figure 6C): 8.763 mV
IIIQGK [reference compound] | – | – | – | -7.6 mV | Zeta-Potential / mV ([1]; mean, Figure 7B): -7.56 mV; Log10 Count Rate [2]: 0.9808
KIKIKIKI [TM13] | 1 (+1 = if > 4 mV) | 5.46 mV | 5.46 mV | – | –
LASLIYR [reference compound] | – | – | – | -5.0 mV | Zeta-Potential / mV ([1]; mean, Figure 7B): -5.01 mV; Log10 Count Rate [2]: 2.0205
CKFKFPF | – | – | – | -1.053 mV | Zeta-Potential / mV ([1]; mean, Figure 6C): -1.053 mV
CEFEFQF [KB12] | -1 (-1 = if < -4 mV) | -24.5 mV | -13.7 mV | – | –
KAQCTLP | – | – | – | -8.503 mV | Zeta-Potential / mV ([1]; mean, Figure 6C): -8.503 mV
IKFLSVN [reference compound] | – | – | – | 5.9 mV | Zeta-Potential / mV ([1]; mean, Figure 7B): 5.9 mV; Log10 Count Rate [2]: 2.136
KIKIQIII [TG7] | 1 (+1 = if > 4 mV) | 19.8 mV | 19.8 mV | – | Zeta Pot. / mV [1]: 19.8 mV
KIKQIIN [JGA3] | -1 (-1 = if < -4 mV) | -11.7 mV | -11.7 mV | – | –
KIKIQINMWA [JR1] | – | – | 14.7 mV | – | Zeta category ( +1 = if > 4 mV;-1 = if < -4 mV; 0 = -4mV to 4 mV) ([1]; FigS26): 1 (+1 = if > 4 mV)

— publication PMC10447463, “Data-mining unveils structure–property–activity correlation of viral infectivity enhancing self-assembling peptides” (Nature Communications, 2023)
